ChEMBL document CHEMBL3286207, “Development of a new class of proteasome inhibitors with an epoxyketone warhead: Rational hybridization of non-peptidic belactosin derivatives and peptide epoxyketones” (Bioorg Med Chem, 2014)

Experiments:
[1] = test system: HCT-116; assay: Cytotoxicity against human HCT116 cells assessed as growth inhibition after 72 hrs by CCK-8 assay; type: functional, cell-based; conditions: HCT-116, 72 h
[2] = target: 26S proteasome; assay: Inhibition of chymotrypsin-like of human 20S proteasome using chromophoric Suc-LLVY-AMC as substrate after 60 mins by fluorescence assay; type: protein-complex assay

IC50 [2]	Compound	IC50 [1]
–	CC[C@H](C)[C@@H]1C(=O)O[C@H]1C(=O)NCCC(COCc1ccccc1)COCc1ccccc1	> 10000 nM
2300 nM	CC(=O)N[C@@H](CC(=O)NCCC(COCc1ccccc1)COCc1ccccc1)C(=O)N[C@@H](CC(C)C)C(=O)[C@@]1(C)CO1	1900 nM
5700 nM	CC(=O)N[C@@H](CC(=O)NCCCCOCc1ccccc1)C(=O)N[C@@H](CC(C)C)C(=O)[C@@]1(C)CO1	2900 nM
